Article PMC6934184, “Selective DNA-PKcs inhibition extends the therapeutic index of localized radiotherapy and chemotherapy” (The Journal of Clinical Investigation, 2019)

Molecular target: T1, TYK2 (Homo sapiens, UniProt P29597)
T1 construct: purchased Thermo Fisher Scientific (Life Technologies) SelectScreen
Experiment: SelectScreen Z'LYTE
Type: biochemical
In short: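 NU5455 was profiled across the SelectScreen Broad panel of kinase activity and binding assays. Z'LYTE reactions such as CSF1R ran at apparent Km ATP, while the Adapta CAMK1 assay used ATP listed as 10. Values are given as percent.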

T1 sequence (P29597 whole entry): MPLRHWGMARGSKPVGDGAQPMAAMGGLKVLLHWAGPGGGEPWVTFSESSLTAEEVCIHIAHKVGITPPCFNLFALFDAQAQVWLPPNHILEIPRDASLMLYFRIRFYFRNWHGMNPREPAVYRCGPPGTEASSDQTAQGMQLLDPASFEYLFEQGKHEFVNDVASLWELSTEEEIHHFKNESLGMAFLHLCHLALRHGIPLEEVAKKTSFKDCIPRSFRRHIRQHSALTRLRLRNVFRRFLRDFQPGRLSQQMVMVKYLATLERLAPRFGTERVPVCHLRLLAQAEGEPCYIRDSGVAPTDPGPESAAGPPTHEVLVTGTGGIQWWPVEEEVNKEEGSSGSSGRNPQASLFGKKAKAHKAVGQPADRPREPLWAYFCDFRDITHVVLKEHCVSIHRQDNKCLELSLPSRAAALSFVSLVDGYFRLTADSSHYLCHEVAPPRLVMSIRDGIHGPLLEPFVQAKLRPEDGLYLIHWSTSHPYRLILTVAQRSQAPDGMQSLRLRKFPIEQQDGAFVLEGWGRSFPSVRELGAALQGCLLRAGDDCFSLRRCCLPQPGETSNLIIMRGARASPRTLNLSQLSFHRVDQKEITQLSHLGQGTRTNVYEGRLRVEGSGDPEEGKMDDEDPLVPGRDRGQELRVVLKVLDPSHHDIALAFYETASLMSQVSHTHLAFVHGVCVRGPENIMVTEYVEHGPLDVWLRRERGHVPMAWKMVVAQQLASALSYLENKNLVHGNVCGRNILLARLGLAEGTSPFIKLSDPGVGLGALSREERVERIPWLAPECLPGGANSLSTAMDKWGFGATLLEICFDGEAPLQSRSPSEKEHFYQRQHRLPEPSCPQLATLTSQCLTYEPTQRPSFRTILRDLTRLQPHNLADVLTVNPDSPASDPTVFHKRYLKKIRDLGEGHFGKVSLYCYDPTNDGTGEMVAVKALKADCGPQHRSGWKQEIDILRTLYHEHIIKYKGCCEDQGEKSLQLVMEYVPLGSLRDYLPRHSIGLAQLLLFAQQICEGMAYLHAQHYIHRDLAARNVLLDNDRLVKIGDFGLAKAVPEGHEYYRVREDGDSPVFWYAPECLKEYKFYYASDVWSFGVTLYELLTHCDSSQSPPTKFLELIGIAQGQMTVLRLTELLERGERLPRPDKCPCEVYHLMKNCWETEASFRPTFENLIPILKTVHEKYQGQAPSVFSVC

## CN(C(=O)CN1CCOCC1)c1ccc2sc3c(-c4cccc5c(=O)cc(N6CC7CCC(C6)O7)oc45)cccc3c2c1 [NU5455]
  inhibition at 1 µM: 4.2%
